These results are taken from patent US6002023A, “2-debenzoyl-2-acyl taxol derivatives and method for making same” (Virginia Tech Intellectural Properties, Inc., priority 1997, dated 1999).

The subject of test [1] is P-388 lymphocytic leukemia cells. In words: cytotoxicity, cell culture assay using P-388 lymphocytic leukemia cells, compared with taxol. The test is classed as cell-based. The settings on record: for ED50 /ED50 (taxol): P-388 leukemia, value of less than 1 = more active than taxol; for antineoplastic activity relative to taxol, cell culture assay (P-388 leukemia in vitro): fold activity versus taxol. From the text: Acylation of 22 with various aromatic carboxylic acids in the presence of dicyclohexylcarbodiimide and 4-pyrrolidinopyridine has led to the preparation of various 2-debenzoyl-2-acyl taxols 13. […] For details of the cell culture assay, see Abbott, B. J., "Protocol 14 of Instruction 275," National Cancer Institute, National Institutes of Health, Jan. 24, 1978.

For test [2] the following is noted: in some assays; cited from earlier work.
For test [3], the system named is non-small cell lung cancer. The settings on record: preliminary studies; cited from earlier work.
Test [4] relates to ovarian cancer and breast cancer. The settings on record: cited from earlier work.

Regarding `CC(=O)O[C@H]1C(=O)[C@@]2(C)[C@H]([C@H](OC(=O)c3cc(F)cc(F)c3)[C@]3(O)C[C@H](OC(=O)[C@H](O)[C@@H](NC(=O)c4ccccc4)c4ccccc4)C(C)=C1C3(C)C)[C@]1(OC(C)=O)CO[C@@H]1C[C@@H]2O` [Compound 13t, 2-debenzoyl-2-(3,5-difluorobenzoyl)taxol], in test [1], the “ED50 /ED50 (taxol)” value came out at 0.00004 and the “antineoplastic activity relative to taxol, cell culture assay (P-388 leukemia in vitro)” value was 25,000 times. For the same compound, the “antineoplastic activity relative to taxol, cell culture assay (P-388 leukemia in vitro)” value in test [1] (listed as drawing 14) was “about 25,000 times”.
Take `COc1cccc(C(=O)O[C@H]2[C@@H]3[C@]4(OC(C)=O)CO[C@@H]4C[C@H](O)[C@@]3(C)C(=O)[C@H](OC(C)=O)C3=C(C)[C@@H](OC(=O)[C@H](O)[C@@H](NC(=O)c4ccccc4)c4ccccc4)C[C@]2(O)C3(C)C)c1` [Compound 13p]: the “ED50 /ED50 (taxol)” value in test [1] amounted to 0.0004.
`CC(=O)O[C@H]1C(=O)[C@@]2(C)[C@H]([C@H](OC(=O)c3cccc(C#N)c3)[C@]3(O)C[C@H](OC(=O)[C@H](O)[C@@H](NC(=O)c4ccccc4)c4ccccc4)C(C)=C1C3(C)C)[C@]1(OC(C)=O)CO[C@@H]1C[C@@H]2O` [Compound 13h]: the “ED50 /ED50 (taxol)” value in test [1] is recorded as 0.25.
Take `CC(=O)O[C@H]1C(=O)[C@@]2(C)[C@H]([C@H](OC(=O)c3cccc(I)c3)[C@]3(O)C[C@H](OC(=O)[C@H](O)[C@@H](NC(=O)c4ccccc4)c4ccccc4)C(C)=C1C3(C)C)[C@]1(OC(C)=O)CO[C@@H]1C[C@@H]2O` [Compound 13s]: the “ED50 /ED50 (taxol)” value in test [1] turned out to be 0.028.
`CC(=O)O[C@@]12CO[C@@H]1C[C@H](O)[C@@]1(C)C(=O)[C@H](O)C3=C(C)[C@@H](OC(=O)[C@H](O)[C@@H](NC(=O)OC(C)(C)C)c4ccccc4)C[C@@](O)([C@@H](OC(=O)c4ccccc4)[C@H]21)C3(C)C` [Taxotere]: the “activity relative to taxol” value in test [2] was “approximately twice as active as taxol”.
`CSc1ccc(C(=O)O[C@H]2[C@@H]3[C@]4(OC(C)=O)CO[C@@H]4C[C@H](O)[C@@]3(C)C(=O)[C@H](OC(C)=O)C3=C(C)[C@@H](OC(=O)[C@H](O)[C@@H](NC(=O)c4ccccc4)c4ccccc4)C[C@]2(O)C3(C)C)cc1` [Compound 13cc]: the “ED50 /ED50 (taxol)” value in test [1] is reported as 12.
On to `COc1cc(C(=O)O[C@H]2[C@@H]3[C@]4(OC(C)=O)CO[C@@H]4C[C@H](O)[C@@]3(C)C(=O)[C@H](OC(C)=O)C3=C(C)[C@@H](OC(=O)[C@H](O)[C@@H](NC(=O)c4ccccc4)c4ccccc4)C[C@]2(O)C3(C)C)cc(OC)c1OC` [Compound 13g], for which, in test [1], the “ED50 /ED50 (taxol)” value is 0.5.
Same read-out and setting: as for `CC(=O)O[C@H]1C(=O)[C@@]2(C)[C@H]([C@H](OC(=O)c3ccc(C(C)=O)cc3)[C@]3(O)C[C@H](OC(=O)[C@H](O)[C@@H](NC(=O)c4ccccc4)c4ccccc4)C(C)=C1C3(C)C)[C@]1(OC(C)=O)CO[C@@H]1C[C@@H]2O` [Compound 13ff], the figure is 30.
Take `CC(=O)O[C@H]1C(=O)[C@@]2(C)[C@H]([C@H](OC(=O)c3ccccc3)[C@]3(O)C[C@H](OC(=O)[C@H](O)[C@@H](NC(=O)c4ccccc4)c4ccccc4)C(C)=C1C3(C)C)[C@]1(OC(C)=O)CO[C@@H]1C[C@@H]2O` [Taxol]: the clinical activity result is “good activity” in test [3] and “excellent clinical activity” in test [4].
